Laboratory results published in patent US20170210723A1, “MOLECULES HAVING PESTICIDAL UTILITY, AND INTERMEDIATES, COMPOSITIONS, AND PROCESSES, RELATED THERETO” (priority 2016, published 2017).

Key:
Type in all cases: in vivo
[1] = tested on: Beet Armyworm (Spodoptera exigua); experiment: Bioassays on BAW, 128-well diet tray assay; conditions: Spodoptera exigua, 168 h; 50 μg/cm^2 on artificial diet, second instar larvae, five to seven days; read-out: BAW % Control (or Mortality) rating
[2] = tested on: Cabbage Looper (Trichoplusia ni); experiment: Bioassays on CL, 128-well diet tray assay; conditions: Trichoplusia ni, 168 h; 50 μg/cm^2 on artificial diet, second instar larvae, five to seven days; read-out: CL % Control (or Mortality) rating
How it was run: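 Second-instar larvae (1–5 per well) were fed diet surface-treated with 50 μg/cm^2 compound, eight wells each. After five to seven days at 25° C. under a 14:10 photoperiod, mortality was scored per well and the eight wells averaged.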

[3] = tested on: Yellow Fever Mosquito (Aedes aegypti); experiment: Bioassays on Yellow Fever Mosquito larvae, 96-well plate; conditions: from 4000 ppm DMSO master plate, about 1 day-old larvae, 3 days
How it was run: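 Aedes aegypti larvae about 1 day old, in water with liver powder, exposed in 96-well plates to compounds from a 4000 ppm DMSO master solution diluted in 90:10 water:acetone. Plates covered and held at room temperature for 3 days, then each well scored for mortality; 6 replicate plates.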

SMILES | mortality at 50 µg/cm2 [1] [%] | mortality at 50 µg/cm2 [2] [%] | YFM % Control (or Mortality) rating [3]
Cc1cc(/C=C/C(c2cc(Cl)c(Cl)c(Cl)c2)C(F)(F)F)cc(F)c1C(=O)N[C@H](C)CSCC(F)(F)F (stereo partly drawn) [F97, 2-Fluoro-6-methyl-4-((E)-4,4,4-trifluoro-3-(3,4,5-trichlorophenyl)but-1-en-1-yl)-N—((R)-1-((2,2,2-trifluoroethyl)thio)propan-2-yl)benzamide] | 50 to 100 | 50 to 100 | A (80-100)
Cc1cc(/C=C/C(c2cc(Cl)c(Cl)c(Cl)c2)C(F)(F)F)cc(F)c1C(=O)N[C@H](C)CS(=O)(=O)CC(F)(F)F (stereo partly drawn) [F98, 2-Fluoro-6-methyl-4-((E)-4,4,4-trifluoro-3-(3,4,5-trichlorophenyl)but-1-en-1-yl)-N—((R)-1-((2,2,2-trifluoroethyl)sulfonyl)propan-2-yl)benzamide] | 50 to 100 | 50 to 100 | A (80-100)
Cc1cc(/C=C/C(c2cc(Cl)c(Cl)c(Cl)c2)C(F)(F)F)cc(F)c1C(=O)N[C@H](C)C[S+]([O-])CC(F)(F)F (stereo partly drawn) [F99, 2-Fluoro-6-methyl-4-((E)-4,4,4-trifluoro-3-(3,4,5-trichlorophenyl)but-1-en-1-yl)-N-((2R)-1-((2,2,2-trifluoroethyl)sulfinyl)propan-2-yl)benzamide] | 50 to 100 | 50 to 100 | A (80-100)
C[C@H](CSCC(F)(F)F)NC(=O)c1ccc(/C=C/C(c2cc(Cl)c(Cl)c(C=O)c2)C(F)(F)F)cc1C(F)(F)F (stereo partly drawn) [F100, 4-((E)-3-(3,4-Dichloro-5-formylphenyl)-4,4,4-trifluorobut-1-en-1-yl)-N—((R)-1-((2,2,2-trifluoroethyl)thio)propan-2-yl)-2-(trifluoromethyl)benzamide] | 50 to 100 | 50 to 100 | B (More than 0-Less than 80)
C=CCSC[C@@H](C)NC(=O)c1ccc(/C=C/C(c2cc(Cl)c(Cl)c(Cl)c2)C(F)(F)F)cc1C(F)(F)F (stereo partly drawn) [F101, N—((R)-1-(Allylthio)propan-2-yl)-4-((E)-4,4,4-trifluoro-3-(3,4,5-trichlorophenyl)but-1-en-1-yl)-2-(trifluoromethyl)benzamide] | 50 to 100 | 50 to 100 | A (80-100)
C=CCS(=O)(=O)C[C@@H](C)NC(=O)c1ccc(/C=C/C(c2cc(Cl)c(Cl)c(Cl)c2)C(F)(F)F)cc1C(F)(F)F (stereo partly drawn) [F102, N—((R)-1-(Allylsulfonyl)propan-2-yl)-4-((E)-4,4,4-trifluoro-3-(3,4,5-trichlorophenyl)but-1-en-1-yl)-2-(trifluoromethyl)benzamide] | 50 to 100 | 50 to 100 | A (80-100)
C=CC[S+]([O-])C[C@@H](C)NC(=O)c1ccc(/C=C/C(c2cc(Cl)c(Cl)c(Cl)c2)C(F)(F)F)cc1C(F)(F)F (stereo partly drawn) [F103, N-((2R)-1-(Allylsulfinyl)propan-2-yl)-4-((E)-4,4,4-trifluoro-3-(3,4,5-trichlorophenyl)but-1-en-1-yl)-2-(trifluoromethyl)benzamide] | 50 to 100 | 50 to 100 | A (80-100)
C[C@H](CSCC(F)(F)F)NC(=O)c1ccc(/C=C/C(c2cc(Cl)cc(Cl)c2)C(F)(F)F)cc1Cl (stereo partly drawn) [F104, 2-Chloro-4-((E)-3-(3,5-dichlorophenyl)-4,4,4-trifluorobut-1-en-1-yl)-N—((R)-1-((2,2,2-trifluoroethyl)thio)propan-2-yl)benzamide] | 50 to 100 | 50 to 100 | A (80-100)
C[C@H](CC[S+]([O-])CC(F)(F)F)NC(=O)c1ccc(/C=C/C(c2cc(Cl)c(Cl)c(Cl)c2)C(F)(F)F)cc1C(F)(F)F (stereo partly drawn) [F105, 4-((E)-4,4,4-Trifluoro-3-(3,4,5-trichlorophenyl)but-1-en-1-yl)-N-((2R)-4-((2,2,2-trifluoroethyl)sulfinyl)butan-2-yl)-2-(trifluoromethyl)benzamide] | 50 to 100 | 50 to 100 | A (80-100)
C[C@H](CCS(=O)(=O)CC(F)(F)F)NC(=O)c1ccc(/C=C/C(c2cc(Cl)c(Cl)c(Cl)c2)C(F)(F)F)cc1C(F)(F)F (stereo partly drawn) [F106, 4-((E)-4,4,4-Trifluoro-3-(3,4,5-trichlorophenyl)but-1-en-1-yl)-N—((R)-4-((2,2,2-trifluoroethyl)sulfonyl)butan-2-yl)-2-(trifluoromethyl)benzamide] | 50 to 100 | 50 to 100 | A (80-100)
C[C@H](CSCC(F)(F)F)NC(=O)c1ccc(/C=C/C(c2cc(Cl)c(C#N)c(Cl)c2)C(F)(F)F)cc1C(F)(F)F (stereo partly drawn) [F109, 4-((E)-3-(3,5-Dichloro-4-cyanophenyl)-4,4,4-trifluorobut-1-en-1-yl)-N—((R)-1-((2,2,2-trifluoroethyl)thio)propan-2-yl)-2-(trifluoromethyl)benzamide] | 50 to 100 | 50 to 100 | A (80-100)
O=C(NC1(CSCC(F)(F)F)CC1)c1ccc(/C=C/C(c2cc(Cl)c(Cl)c(Cl)c2)C(F)(F)F)cc1C(F)(F)F (stereo not drawn) [F110, (E)-4-(4,4,4-Trifluoro-3-(3,4,5-trichlorophenyl)but-1-en-1-yl)-N-(1-(((2,2,2-trifluoroethyl)thio)methyl)cyclopropyl)-2-(trifluoromethyl)benzamide] | 50 to 100 | 50 to 100 | A (80-100)
O=C(NC1(CS(=O)(=O)CC(F)(F)F)CC1)c1ccc(/C=C/C(c2cc(Cl)c(Cl)c(Cl)c2)C(F)(F)F)cc1C(F)(F)F (stereo not drawn) [F112, (E)-4-(4,4,4-Trifluoro-3-(3,4,5-trichlorophenyl)but-1-en-1-yl)-N-(1-(((2,2,2-trifluoroethyl)sulfonyl)methyl)cyclopropyl)-2-(trifluoromethyl)benzamide] | 50 to 100 | 50 to 100 | A (80-100)
CCSC(CNC(=O)c1ccc(/C=C/C(c2cc(Cl)c(Cl)c(Cl)c2)C(F)(F)F)cc1C(F)(F)F)SCC (stereo not drawn) [F113, (E)-N-(2,2-Bis(ethylthio)ethyl)-4-(4,4,4-trifluoro-3-(3,4,5-trichlorophenyl)but-1-en-1-yl)-2-(trifluoromethyl)benzamide] | 50 to 100 | 50 to 100 | A (80-100)
C[C@H](CS(=O)(=O)CC(F)(F)F)NC(=O)c1ccc(/C=C/C(c2cc(Cl)c(Cl)c(Cl)c2)C(F)F)cc1C(F)(F)F (stereo partly drawn) [F118, 4-((E)-4,4-Difluoro-3-(3,4,5-trichlorophenyl)but-1-en-1-yl)-N—((R)-1-((2,2,2-trifluoroethyl)sulfonyl)propan-2-yl)-2-(trifluoromethyl)benzamide] | 50 to 100 | 50 to 100 | A (80-100)
NC(=O)[C@H](CSCC(F)(F)F)NC(=O)c1ccc(/C=C/C(c2cc(Cl)c(Cl)c(Cl)c2)C(F)(F)F)cc1C(F)(F)F (stereo partly drawn) [F125, N—((R)-1-Amino-1-oxo-3-((2,2,2-trifluoroethyl)thio)propan-2-yl)-4-((E)-4,4,4-trifluoro-3-(3,4,5-trichlorophenyl)but-1-en-1-yl)-2-(trifluoromethyl)benzamide] | 50 to 100 | 50 to 100 | A (80-100)
CC(F)(F)C(/C=C/c1ccc(C(=O)NCCS(=O)(=O)CC(F)(F)F)c(C(F)(F)F)c1)c1cc(Cl)c(Cl)c(Cl)c1 (stereo not drawn) [F126, (E)-4-(4,4-Difluoro-3-(3,4,5-trichlorophenyl)pent-1-en-1-yl)-N-(2-((2,2,2-trifluoroethyl)sulfonyl)ethyl)-2-(trifluoromethyl)benzamide] | 50 to 100 | 50 to 100 | B (More than 0-Less than 80)
C[C@H](CS(=O)(=O)CC(F)(F)F)NC(=O)c1ccc(/C=C/C(c2cc(Cl)c(F)c(Cl)c2)C(C)(F)F)cc1C(F)(F)F (stereo partly drawn) [F131, 4-((E)-3-(3,5-Dichloro-4-fluorophenyl)-4,4-difluoropent-1-en-1-yl)-N—((R)-1-((2,2,2-trifluoroethyl)sulfonyl)propan-2-yl)-2-(trifluoromethyl)benzamide] | 50 to 100 | 50 to 100 | D (No activity noticed in this bioassay)
C[C@H](CS(=O)(=O)CC(F)(F)F)NC(=O)c1ccc(/C=C/C(c2cc(Cl)cc(Cl)c2)C(C)(F)F)cc1Cl (stereo partly drawn) [F132, 2-Chloro-4-((E)-3-(3,5-dichlorophenyl)-4,4-difluoropent-1-en-1-yl)-N—((R)-1-((2,2,2-trifluoroethyl)sulfonyl)propan-2-yl)benzamide] | 50 to 100 | 50 to 100 | B (More than 0-Less than 80)
C[C@H](CS(=O)(=O)CC(F)(F)F)NC(=O)c1ccc(/C=C/C(c2cc(Cl)cc(Cl)c2)C(C)(F)F)cc1C(F)(F)F (stereo partly drawn) [F134, 4-((E)-3-(3,5-Dichlorophenyl)-4,4-difluoropent-1-en-1-yl)-N—((R)-1-((2,2,2-trifluoroethyl)sulfonyl)propan-2-yl)-2-(trifluoromethyl)benzamide] | 50 to 100 | 50 to 100 | A (80-100)
